In ChEMBL document CHEMBL4342427, “A new chemotype with promise against Trypanosoma cruzi” (Bioorg Med Chem Lett, 2020):
≈ marks a conversion by molar mass, not a printed value. Calls of active or inactive are those of the source. No cut-off for these calls is given here.

Legend:
Trypanosoma cruzi [1] = test: Antitrypanosomal activity against Trypanosoma cruzi Tulahuen C4 trypomastigotes infected in rat L6 cells measured after 96 hrs by inverted microscopy analysis; type: functional, organism-based; settings: Tulahuen C4, L6, 96 h
Trypanosoma cruzi [2] = test: Antitrypanosomal activity against Trypanosoma cruzi Tulahuen 20A trypomastigote expressing GFP infected in BALB/c mouse cardiomyocytes assessed as reduction in parasitemia measured after 72 hrs by fluorescence assay; type: functional, organism-based
HFF = test: Cytotoxicity against human HFF cells assessed as cell growth inhibition; type: cell-based
[3] = system: Trypanosoma brucei rhodesiense; test: Antiprotozoal activity against Trypanosoma brucei rhodesiense STIB900 […] assessed as growth inhibition after 72 hrs by Alamar Blue dye-based fluorometric analysis; type: functional, organism-based; settings: STIB900, 72 h
U2OS = test: Cytotoxicity against human U2OS cells assessed as cell growth inhibition; type: cell-based
Leishmania donovani = test: Antileishmanial activity against Leishmania donovani MHOM/ET/67/L82 amastigotes assessed as growth inhibition after 72 hrs by plate reader based Alamar blue assay; type: functional, organism-based; settings: MHOM/ET/67/L82, 72 h
[4] = n-octanol/aqueous buffer distribution coefficient, log D of compound at pH 7.4 by HPLC analysis; type: physicochemical
[5] = Intrinsic clearance in human liver microsomes assessed per mg protein measured up to 60 mins in presence of NADPH; type: ADME, Microsome; settings: for microsomal CLint: liver microsomes
[6] = Cytotoxicity against human HC04 cells assessed as cell growth inhibition; type: cell-based
HEK-293T = test: Cytotoxicity against human HEK293T cells assessed as cell growth inhibition; type: cell-based
[7] = Kinetic solubility in phosphate buffer at pH 6.5 by nephelometry; settings: read-out: Kinetic_solubility
Toxoplasma gondii = test: Antiparasitic activity against Toxoplasma gondii RH transfected with fluorescent transgene dTom; type: functional, organism-based
[8] = Intrinsic clearance in mouse liver microsomes assessed per mg protein measured up to 60 mins in presence of NADPH; type: ADME, Microsome; settings: 1 h
Plasmodium falciparum = test: Antiprotozoal activity against Plasmodium falciparum NF54 assessed as reduction in [3H]hypoxanthine incorporation preincubated for 48 hrs followed by [3H]hypoxanthine addition and measured after 24 hrs by liquid scintillation counting method; type: functional, organism-based
[9] = Ratio of IC50 for antiprotozoal activity against Plasmodium falciparum NF54 assessed as reduction in [3H]hypoxanthine incorporation preincubated for 48 hrs followed by [3H]hypoxanthine addition and measured after 24 hrs by liquid scintillation counting method to IC50 for antitrypanosomal activity against Trypanosoma cruzi Tulahuen C4 trypomastigotes infected in rat L6 cells measured after 96 hrs …; type: functional
[10] = Ratio of IC50 for antiprotozoal activity against Trypanosoma brucei rhodesiense STIB900 […] assessed as growth inhibition after 72 hrs by Alamar Blue dye-based fluorometric analysis to IC50 for antitrypanosomal activity against Trypanosoma cruzi Tulahuen C4 trypomastigotes infected in rat L6 cells measured after 96 hrs by inverted microscopy analysis; type: functional
[11] = Protein binding in human plasma by HPLC analysis; type: ADME, cell-free
[12] = Kinetic solubility in 0.01M HCl at pH 2 by nephelometry; settings: read-out: Kinetic_solubility
[13] = biological target: T1, Sterol 14-alpha demethylase (Trypanosoma cruzi (strain CL Brener), UniProt Q7Z1V1); test: (§1) Binding affinity to full length Trypanosoma cruzi Tulahuen C4 C-terminal His-tagged CYP51 expressed in Escherichia coli HMS174 (DE3) assessed as induction of shift in Soret band by spectrophotometry
T1 sequence (Q7Z1V1 whole entry): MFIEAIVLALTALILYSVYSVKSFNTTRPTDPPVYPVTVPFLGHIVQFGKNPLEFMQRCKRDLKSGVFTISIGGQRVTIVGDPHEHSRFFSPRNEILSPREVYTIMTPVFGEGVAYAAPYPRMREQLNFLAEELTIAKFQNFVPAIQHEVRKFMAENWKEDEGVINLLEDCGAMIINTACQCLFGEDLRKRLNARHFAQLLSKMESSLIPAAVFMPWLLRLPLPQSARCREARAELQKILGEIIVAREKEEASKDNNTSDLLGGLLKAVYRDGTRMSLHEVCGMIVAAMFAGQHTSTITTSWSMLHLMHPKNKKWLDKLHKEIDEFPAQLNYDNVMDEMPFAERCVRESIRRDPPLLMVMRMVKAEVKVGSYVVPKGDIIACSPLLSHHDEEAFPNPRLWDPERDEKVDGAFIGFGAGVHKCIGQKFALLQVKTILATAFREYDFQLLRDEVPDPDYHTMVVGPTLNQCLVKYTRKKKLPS

[14] = biological target: T1, Sterol 14-alpha demethylase; test: Inhibition of Trypanosoma cruzi Tulahuen C4 CYP51 expressed in Escherichia coli HMS174 using [3H]-sterol as substrate in presence of NADPH by reversed phase HPLC analysis
[15] = biological target: Sterol 14-alpha demethylase (Trypanosoma cruzi (strain CL Brener)) (UniProt Q7Z1V1); test: as §1
Sterol 14-alpha demethylase (Trypanosoma cruzi (strain CL Brener)), sequence (Q7Z1V1 whole entry, looked up): as the sequence (Q7Z1V1 whole entry) above

CN1CCN(c2ccc(S(=O)(=O)NCc3ccc(C(=O)Nc4ccc(C#N)nc4)cc3)cc2)CC1
IC50 (Trypanosoma cruzi [1]): 100 µM

CN1CCN(c2ccc(S(=O)(=O)NCc3ccc(C(=O)Nc4cncnc4)cc3)cc2)CC1
IC50 (Trypanosoma cruzi [1]): 96 µM

Cc1ccc(NC(=O)c2ccc(CNS(=O)(=O)c3ccc(N4CCN(C)CC4)cc3)cc2)c(C)n1
IC50 (Trypanosoma cruzi [1]): 110 µM

O=C(Nc1cccnc1)c1ccc(CNS(=O)(=O)c2ccc(N3CCC3)cc2)cc1
IC50 (Trypanosoma cruzi [1]): 8.3 µM

CN1CCN(c2ccc(S(=O)(=O)NCc3ccc(C(=O)Nc4cnccn4)cc3)cc2)CC1
IC50 (Trypanosoma cruzi [1]): 17 µM

O=C(Nc1cccnc1)c1ccc(CNS(=O)(=O)c2ccc(N3CCNCC3)cc2)cc1
IC50 (Trypanosoma cruzi [1]): 69 µM

CN1CCN(c2ccc(S(=O)(=O)NC[C@H]3CC[C@H](C(=O)Nc4cccnc4)CC3)cc2)CC1
IC50 (Trypanosoma cruzi [1]): 120 µM

Cc1ccc(NC(=O)c2ccc(CNS(=O)(=O)c3ccc(N4CCN(C)CC4)cc3)cc2)cn1
IC50 (Trypanosoma cruzi [1]): 88 µM

CN1CCN(c2ccc(C(=O)NCc3ccc(C(=O)Nc4cccnc4)cc3)cc2)CC1
IC50 (Trypanosoma cruzi [1]): 120 µM

CC[C@@H]([C@H](C)O)n1ncn(-c2ccc(N3CCN(c4ccc(OC[C@@H]5CO[C@@](Cn6cncn6)(c6ccc(F)cc6F)C5)cc4)CC3)cc2)c1=O [POSACONAZOLE]
IC50 (Trypanosoma cruzi [2]): 0.005 µM

CN1CCN(c2ccc(S(=O)(=O)NCc3ccc(-c4nc(-c5cccnc5)no4)cc3)cc2)CC1
IC50 (HFF): > 50 µM | IC50 [3]: 3.4 µM | IC50 (U2OS): 28 µM | IC50 (Leishmania donovani): 49 µM | IC50 (Trypanosoma cruzi [1]): 1.2 µM | logD [4]: 4.1 | CLint ([5]; microsomes, 1 h): 535 µL/min/mg | IC50 [6]: > 50 µM | IC50 (HEK-293T): 42 µM | solubility kinetic [7]: 25 to 50 µg/mL (≈ 51 to 102 µM) | IC50 (Toxoplasma gondii): 21 µM | CLint [8]: 677 µL/min/mg | IC50 (Plasmodium falciparum): 5.8 µM

O=C(Nc1cccnc1)c1ccc(CNS(=O)(=O)c2ccc(N3CCCCC3)cc2)cc1
IC50 (Trypanosoma cruzi [1]): 110 µM

O=C(Nc1cccnc1)c1ccc(CNS(=O)(=O)c2ccc(N3CCOCC3)cc2)cc1
IC50 (HFF): 2 µM | IC50 [3]: 25 µM | IC50 (U2OS): 0.16 µM | IC50 (Leishmania donovani): 180 µM | IC50 (Trypanosoma cruzi [1]): 2.1 µM | Ratio IC50 [9]: 10 | logD [4]: 2.6 | microsomal CLint [5]: 69 µL/min/mg | Ratio IC50 [10]: 10 | IC50 [6]: > 50 µM | PPB [11]: 76.2% | IC50 (HEK-293T): 0.95 µM | solubility kinetic [7]: 12.5 to 25 µg/mL (≈ 27.6 to 55.2 µM) | solubility kinetic [12]: 50 to 100 µg/mL (≈ 110 to 221 µM) | IC50 (Toxoplasma gondii): > 100 µM | CLint [8]: 200 µL/min/mg | IC50 (Plasmodium falciparum): 21 µM

O=C(Nc1cccnc1)c1ccc(CNS(=O)(=O)c2ccc(N3CCC(O)CC3)cc2)cc1
IC50 (Trypanosoma cruzi [1]): 120 µM

CCOC(=O)N1CCN(c2ccc(S(=O)(=O)NCc3ccc(C(=O)Nc4cccnc4)cc3)cc2)CC1
IC50 (Trypanosoma cruzi [1]): 46 µM

CN1CCN(c2ccc(S(=O)(=O)NCc3ccc(C(=O)Nc4cccnc4)cc3)cc2)CC1
IC50 (HFF): > 50 µM | IC50 [3]: 32 µM | IC50 (U2OS): 0.15 µM | IC50 (Leishmania donovani): > 200 µM | IC50 (Trypanosoma cruzi [1]): 0.007 µM | Kd [13]: 1.32 µM | logD [4]: 2.8 | microsomal CLint [5]: 45 µL/min/mg | IC50 [6]: > 50 µM | PPB [11]: 85.2% | IC50 (HEK-293T): 0.36 µM | solubility kinetic [7]: 25 to 50 µg/mL (≈ 53.7 to 107 µM) | IC50 (Toxoplasma gondii): > 100 µM | IC50 [14]: 49 µM | CLint [8]: 112 µL/min/mg | IC50 (Plasmodium falciparum): 10 µM

C[C@@H]1CN(c2ccc(S(=O)(=O)NCc3ccc(C(=O)Nc4cccnc4)cc3)cc2)C[C@H](C)N1
IC50 (Trypanosoma cruzi [1]): 130 µM

CN1CCN(c2ccc(S(=O)(=O)NCc3ccc(C(=O)Nc4ccncc4)cc3)cc2)CC1
IC50 (Trypanosoma cruzi [1]): 28 µM

Cc1ncccc1NC(=O)c1ccc(CNS(=O)(=O)c2ccc(N3CCN(C)CC3)cc2)cc1
IC50 (Trypanosoma cruzi [1]): 65 µM | Activity [15]: inactive | IC50 [14]: 487 µM
